Laboratory results as given in patent US4266001A, “Light-sensitive mixture” (Hoechst Aktiengesellschaft, priority 1978, dated 1981).

Test: Solubility of naphthoquinone diazides in ethylene glycol monomethyl ether
Format: physicochemical
Details: for Solubility (%): 26° C., stirred for 2 hours, 2 g in 50 g, crystalline samples, substantially free from amorphous fractions; for solubility (in words): Table 2
Method: The solubility of the new naphthoquinone diazides, as compared with the known bis-1,2-naphthoquinone-2-diazide-5-sulfonic acid ester of 2,2-bis-(4-hydroxyphenyl)-propane (comparison compound V), was determined as follows: 2 g of the naphthoquinone diazide were suspended in each case in 50 g of ethylene glycol monomethyl ether and stirred for 2 hours at 26° C. Then, the mixture was filtered by suction, the filter residue was washed successively with 10 cm^3 of methanol and 10 cm^3 of ether and dried in vacuo and its weight was determined. The solubilities in ethylene glycol monomethyl ether, listed in Table 2, were calculated from the difference to the quantity employed: […]
In all cases, it was confirmed by diffraction diagrams taken with an X-ray diffractometer that the samples tested were substantially free from amorphous fractions. In every case, the solubility of a solid compound which is wholly or partially present in the amorphous state is markedly higher than that of the corresponding crystalline compound. A comparison with these values is, however, unreliable because the solubilities of amorphous compounds cannot be determined with exact reproducibility due to the differing tendency of supersaturated solutions to crystallize.

Structure (SMILES) | Solubility (%) | solubility (in words)
COC(=O)CCC(C)(c1ccc(OS(=O)(=O)c2cccc3c2C=CC(=[N+]=[N-])C3=O)cc1)c1ccc(OS(=O)(=O)c2cccc3c2C=CC(=[N+]=[N-])C3=O)cc1 (centres unmarked) [Compound 2] | 1.85% | very good solubility
CCOC(=O)CCC(C)(c1ccc(OS(=O)(=O)c2cccc3c2C=CC(=[N+]=[N-])C3=O)cc1)c1ccc(OS(=O)(=O)c2cccc3c2C=CC(=[N+]=[N-])C3=O)cc1 (centres unmarked) [Compound 3] | 0.86% | –
COCCOC(=O)CCC(C)(c1ccc(OS(=O)(=O)c2cccc3c2C=CC(=[N+]=[N-])C3=O)cc1)c1ccc(OS(=O)(=O)c2cccc3c2C=CC(=[N+]=[N-])C3=O)cc1 (centres unmarked) [Compound 7] | 0.91% | –
CCOCCOC(=O)CCC(C)(c1ccc(OS(=O)(=O)c2cccc3c2C=CC(=[N+]=[N-])C3=O)cc1)c1ccc(OS(=O)(=O)c2cccc3c2C=CC(=[N+]=[N-])C3=O)cc1 (centres unmarked) [Compound 8] | 3.80% | very good solubility
COC(C)CCOC(=O)CCC(C)(c1ccc(OS(=O)(=O)c2cccc3c2C=CC(=[N+]=[N-])C3=O)cc1)c1ccc(OS(=O)(=O)c2cccc3c2C=CC(=[N+]=[N-])C3=O)cc1 (centres unmarked) [Compound 9] | 1.54% | very good solubility
CCCOC(=O)C(c1ccc(OS(=O)(=O)c2cccc3c2C=CC(=[N+]=[N-])C3=O)cc1)c1ccc(OS(=O)(=O)c2cccc3c2C=CC(=[N+]=[N-])C3=O)cc1 (centres unmarked) [Compound 19] | 0.95% | –
CCCCOC(=O)C(c1ccc(OS(=O)(=O)c2cccc3c2C=CC(=[N+]=[N-])C3=O)cc1)c1ccc(OS(=O)(=O)c2cccc3c2C=CC(=[N+]=[N-])C3=O)cc1 (centres unmarked) [Compound 20] | > 7.4% | very good solubility
CCOCCOC(=O)C(c1ccc(OS(=O)(=O)c2cccc3c2C=CC(=[N+]=[N-])C3=O)cc1)c1ccc(OS(=O)(=O)c2cccc3c2C=CC(=[N+]=[N-])C3=O)cc1 (centres unmarked) [Compound 22] | 6.0% | very good solubility
CC(C)(c1ccc(OS(=O)(=O)c2cccc3c2C=CC(=[N+]=[N-])C3=O)cc1)c1ccc(OS(=O)(=O)c2cccc3c2C=CC(=[N+]=[N-])C3=O)cc1 [V, bis-1,2-naphthoquinone-2-diazide-5-sulfonic acid ester of 2,2-bis-(4-hydroxyphenyl)-propane, reference compound] | 0.75% | –
